{
  "source": "ChEMBL document CHEMBL5725763",
  "about": "“Factor XIa inhibitors” (2018)",
  "note": "pKi: −log10 of the molar value.",
  "data": [
    {"target": "Coagulation factor XI (Homo sapiens, UniProt P03951)", "sequence (P03951 19-387 limits assumed)": "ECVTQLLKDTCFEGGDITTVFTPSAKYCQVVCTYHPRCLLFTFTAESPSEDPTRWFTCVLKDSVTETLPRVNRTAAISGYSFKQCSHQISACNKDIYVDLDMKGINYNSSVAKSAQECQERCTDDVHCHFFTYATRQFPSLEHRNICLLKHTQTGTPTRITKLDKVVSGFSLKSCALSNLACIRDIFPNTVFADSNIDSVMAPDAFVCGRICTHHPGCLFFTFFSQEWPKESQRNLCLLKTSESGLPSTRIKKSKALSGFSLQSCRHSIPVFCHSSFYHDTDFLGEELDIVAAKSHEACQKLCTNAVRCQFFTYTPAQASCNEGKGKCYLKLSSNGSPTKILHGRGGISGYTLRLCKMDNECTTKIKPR", "sequence (P03951 388-625 limits assumed)": "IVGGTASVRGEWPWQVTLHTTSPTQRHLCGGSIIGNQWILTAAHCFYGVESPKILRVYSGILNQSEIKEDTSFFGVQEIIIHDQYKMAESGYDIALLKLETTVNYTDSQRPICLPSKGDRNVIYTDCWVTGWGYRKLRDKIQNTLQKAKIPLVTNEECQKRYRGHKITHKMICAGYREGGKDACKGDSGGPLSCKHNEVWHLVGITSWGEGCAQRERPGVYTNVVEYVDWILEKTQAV", "experiment": "Factor XIa Assay: The effectiveness of a compound of the present invention as an inhibitor of Coagulation Factor XIa can be determined using a relevant purified serine protease, and an appropriate synthetic substrate. The rate of hydrolysis of the chromogenic or fluorogenic substrate by the relevant serine protease was measured both in the absence and presence of compounds of the present invention. Assays were conducted at room temperature or at 37° C. […] A decrease in the rate of fluorescence change in the presence of inhibitor is indicative of enzyme inhibition. Such methods are known to one skilled in the art. […] Times required to achieve equilibration between enzyme and inhibitor were determined in control experiments. Initial velocities of product formation in the absence (Vo) or presence of inhibitor (Vi) were measured. Assuming competitive inhibition, and that unity is negligible compared Km/[S], [I]/e, and [I]/e (where [S], [I], and e respectively represent the total concentrations, of substrate, inhibitor and enzyme), the equilibrium constant (Ki) for dissociation of the inhibitor from the enzyme can be obtained from the dependence of Vo/Vi on [I] shown in the following equation. V o /V i=1+[I]/K iThe activities shown by this assay indicate that the compounds of the invention may be therapeutically useful for treating or preventing various cardiovascular and/or cerebrovascular thromboembolic conditions in patients suffering from unstable angina, acute coronary syndrome, refractory angina, myocardial infarction, transient ischemic attacks, atrial fibrillation, stroke such as thrombotic stroke or embolic stroke, venous thrombosis, coronary and cerebral arterial thrombosis, cerebral and pulmonary embolism, atherosclerosis, deep vein thrombosis, disseminated intravascular coagulation, and reocclusion or restenosis of recanalized vessels.", "values": [
      {"smiles": "COC(=O)Nc1ccc2c(N[C@@H](Cc3ccccc3)C(=O)N3CCC[C@@]4(C3)OC(=O)Nc3ccc(Cl)cc34)nn(C)c2c1", "pKi": 5.09},
      {"smiles": "COC(=O)Nc1ccc2c(N[C@@H](Cc3ccccc3)C(=O)N3CCC[C@@]4(C3)OC(=O)Nc3ccc(Cl)cc34)noc2c1", "pKi": 6.28},
      {"smiles": "Nc1ccc(-c2c[nH]c(C(Cc3ccccc3)C(=O)N3CCC[C@@]4(C3)OC(=O)Nc3ccc(Cl)c(F)c34)n2)cn1", "note": "(some centres undefined)", "pKi": 6.45},
      {"smiles": "CC(=O)Nc1ccc(N[C@@H](Cc2ccccc2)C(=O)N2CCC[C@@]3(C2)OC(=O)Nc2ccc(Cl)cc23)cc1", "pKi": 5.00}
    ]}
  ]
}
